In patent EP0158545A1, “[Alpha-(alkylaminomethyl)-benzylthio]-acetic-acid derivatives, process for their preparation and their therapeutic use” (priority 1984, dated 1985):

What was measured:
souris [1] = conditions: half an hour after I.P., dépression de 600 mmHg
souris [2] = experiment: Spontaneous motility (actimeter), mouse; format: in vivo; conditions: souris, 0,5 h after I.P., recorded 30 minutes; plus forte dose utilisée (64 mg/kg)
souris [3] = experiment: Asphyxic anoxia (gallamine triethiodide), mouse; format: in vivo; conditions: product I.P. half an hour before triiodoéthylate de gallamine 32 mg/kg I.P.
souris [4] = experiment: Interaction with oxotremorine, mouse; format: in vivo
souris [5] = experiment: Interaction with barbital (sleep duration), mouse; format: in vivo; conditions: barbital 220 mg/kg I.P. half an hour after product, plus forte dose utilisée (64 mg/kg)
rat [6] = experiment: Global behaviour and reactivities, rat; format: in vivo; conditions: I.P.
Protocol: (§1) On a résumé ci-après les résultats des essais neuropsychopharmacologiques qui ont été entrepris avec les produits préférés selon l'invention, le CRL 41 190 (Ex 1) et le CRL 41 214 (Ex 3). Dans ce résumé, les deux produits à tester mis en solution dans de l'eau distillée ont été administrés, sauf indiction contraire, par voie intrapéritonéale sous un volume de 20 ml/kg chez la souris mâle et sous un volume de 5 ml/kg chez le rat mâle. […]
(§2) Des lots de trois animaux sont observés avant puis 0,25 h, 0,5, h, 1 h, 2 h, 3 h et 24 h après administration de CRL 41 190.

rat [7] = experiment: Interaction with apomorphine, rat; format: in vivo; conditions: product I.P. 0,50 h before s.c. 0,5 mg/kg apomorphine
souris [8] = experiment: Four-plate test, traction and electroshock, mouse; format: in vivo
Protocol: Le test est pratiqué sur des lots de 10 souris 0,50 h après l'administration du produit à étudier.

souris mâle [9] = conditions: mouse, in vivo, ip
Protocol: as §1
La DL-0 (dose maximale non mortelle) du CRL 41 190 est supérieure à 128 mg/kg par voie I.P. chez la souris mâle, et la DL-30 est de l'ordre de 256 mg/kg.
Par voie I.P. chez la souris mâle, la DL-0 est supérieure à 256 mg/kg.

souris [10] = experiment: Intergroup aggressiveness, mouse; format: in vivo; conditions: half an hour after I.P., 10 minutes, plus forte dose utilisée (64 mg/kg)
Protocol: Après avoir séjourné pendant 3 semaines dans chacune des moitiés d'une cage séparées par une cloison opaque, des groupes de 3 souris reçoivent le CRL 41 190. Une demi-heure plus tard, les deux groupes d'une même cage sont réunis par retrait de la cloison et on note le nombre de combats qui surviennent en 10 minutes.

souris [11] = experiment: Interaction with apomorphine, mouse; format: in vivo; conditions: product I.P. 0,50 h before s.c. apomorphine
Protocol: • 1°) chez la souris • Des lots de 6 souris reçoivent le produit à étudier 0,50 h avant une injection sous-cutanée de 1 mg/kg ou 16 mg/kg d'apomorphine.

souris mâle [12] = experiment: Complementary neuropsychopharmacological tests by gastric route, mouse; format: in vivo; conditions: voie gastrique, 20 ml/kg in distilled water
Protocol: Des essais complémentaires ont été entrepris, le CRL 41 190 en solution dans de l'eau distillée étant administré par voie gastrique sous un volume de 20 ml/kg chez la souris mâle.

souris [13] = experiment: Interaction with reserpine (hypothermia, ptosis), mouse; format: in vivo
Protocol: Quatre heures après l'injection intrapéritonéale de 2,5 mg/kg de réserpine, des lots de 12 souris reçoivent le CRL 41 190. On étudie l'influence du produit à tester sur l'hypothermie et le ptôsis réserpiniques.

rats = experiment: Interaction with amphetamine (stereotypies), rat; format: in vivo; conditions: amphétamine 2 mg/kg I.P. half an hour after product, doses de 8 et 32 mg/kg
Protocol: L'amphétamine (2 mg/kg) est injectée par voie intrapéritonéale à des lots de 6 rats, une demi -heure après l'administration de CRL 41 190.

souris [14] = experiment: Global behaviour and reactivities, mouse; format: in vivo; conditions: I.P.
Protocol: as §1, §2

souris [15] = experiment: Behavioural despair (forced immersion), mouse; format: in vivo; conditions: half an hour after I.P., plus forte dose utilisée (64 mg/kg)
Source text: On note la durée totale d'immobilité entre la 2ème et la 6ème minutes suivant l'immersion.

l'homme = experiment: Clinical treatment of depression, oral administration; format: in vivo
souris [16] = experiment: Motility reduced by habituation to the enclosure, mouse; format: in vivo; conditions: I.P., after 18 heures in actimeter
[17] = oxotrémorine 0,5 mg/kg I.P., dose de 64 mg/kg
[18] = souris, 0,50 h after I.P. administration

CC(C)(C)NCC(SCC(N)=O)c1ccccc1 (racemic) [CRL 41 190, chlorhydratede [α-(tertiobutylamino-méthyl)-benzyl]-thioacétamide]
récupération motrice après anoxie hypobare aigue (souris [1]): n'entraîne pas d'amélioration de la récupération motrice | activité motrice spontanée (souris [2]): ne modifie pratiquement pas l'activité motrice spontanée de la souris | délai d'apparition des convulsions et de la mort consécutives à une anoxie asphyxique (souris [3]): ne modifie pas le délai d'apparition des convulsions et de la mort | signes de stimulation cholinergique périphérique dûs à l'oxotrémorine (souris [4]; oxotrémorine 0,5 mg/kg I.P., aux autres doses (below 64 mg/kg)): ne modifie pratiquement pas les signes de stimulation cholinergique péripherique dûs à l'oxotrémorine | intensité des tremblements dûs à l'oxotrémorine (souris [4]; [17]): diminue faiblement l'intensité des tremlblements dûs à l'oxotrémorine | salivation (symptômes cholinergiques périphériques) (souris [4]; [17]): diminue faiblement la salivation entre les 1,5 h et 2 h qui suivent son administration | hypothermie induite par l'oxotrémorine (souris [4]; oxotrémorine 0,5 mg/kg I.P., doses de 4 mg/kg, 16 mg/kg et surtout 64 mg/kg): Cet antagonisme est net | hypothermie induite par l'oxotrémorine (souris [4]; product half an hour before oxotrémorine 0,5 mg/kg I.P., dès la dose de 1 mg/kg): s'oppose à l'hypothermie induite par l'oxotrémorine | durée du sommeil barbiturique (souris [5]): diminue la durée du sommeil barbiturique | comportement global et réactivités (rat [6]; dose de 32 mg/kg): une mydriase pendant 1 h | comportement global et réactivités (rat [6]; doses de 0,5 mg/kg à 8 mg/kg): un comportement, des réactivités, une variation de la température rectale, et une variation du diamètre pupillaire sensiblement comparables à ceux du lot témoin | stéréotypies induites par l'apomorphine (rat [7]): laisse inchangées les stéréotypies induites par l'apomorphine | effets convulsivants de l'électrochoc (souris [8]; [18]): ne modifie pas les effets convulsivants | incapacité motrice (traction) (souris [8]; [18]): ne provoque pas d'incapacité motrice majeure | nombre de passages punis (test des quatre plaques) (souris [8]; [18]): n'entraîne pas d'augmentation du nombre de passages punis | effets létaux de l'électrochoc (souris [8]; souris, I.P., dose de 64 mg/kg): aggrave, à la dose de 64 mg/kg, les effets létaux de l'électrochoc | DL-0 (dose maximale non mortelle) (souris mâle [9]): > 128 mg/kg | DL-30 (souris mâle [9]): ~256 mg/kg | nombre de combats (souris [10]): augmente modérément le nombre de combats | comportements de verticalisation et stéréotypies (apomorphine) (souris [11]): ne sont pratiquement pas modifiés | hypothermie induite par 16 mg/kg d'apomorphine (souris [11]; dès la dose de 1 mg/kg): antagonise dès la dose de 1 mg/kg l'hypothermie induite par 16 mg/kg d'apomorphine | hypothermie induite par 1 mg/kg d'apomorphine (souris [11]; plus forte dose utilisée (64 mg/k)): s'oppose à l'hypothermie induite par 1 mg/kg d'apomorphine | overall CNS profile by gastric route (souris mâle [12]): agit essentiellement en tant qu'antidépresseur avec, à fortes doses, une composante éveillante et stimulante très modérée | hypothermie réserpinique (souris [13]; product 4 h after réserpine 2,5 mg/kg I.P., dès la dose de 4 mg/kg): antagonise l'hypothermie réserpinique | ptôsis réserpinique (souris [13]; réserpine 2,5 mg/kg I.P., 16 mg/kg et 64 mg/kg, from half an hour after administration): antagonise faiblement le ptôsis réserpinique | hypothermie réserpinique (souris [13]; réserpine 2,5 mg/kg I.P., deux plus fortes doses (16 mg/kg et 64 mg/kg)): Cet antagonisme est très net | durée des stéréotypies amphétaminiques (rats): augmente nettement la durée des stéréotypies amphétaminiques | comportement global et réactivités (souris [14]; dose de 1 mg/kg, observed 0,25 h to 24 h): aùcune modification nette du comportement et et des réactivités | comportement global et réactivités (souris [14]; dose de 64 mg/kg): une augmentation de la réaction de peur pendant 1 h et de la réactivité au toucher de 0,5 h à 1 h, une sédation, et, une mydriase faible pendant 1 h | comportement global et réactivités (souris [14]; doses de 4 et 16 mg/kg): une augmentation de la réaction de peur, d'υne part, et une augmentation de la réactivité au toucher pendant 0,5 h | durée de l'immobilité de la souris placée en immersion forcée (souris [15]): diminue nettement la durée de l'immobilité de la souris placée en immersion forcée | traitement des dépressions chez l'homme (l'homme; administration orale, gélules ou comprimés 25 mg ou 50 mg, 1 à 2 prises par jour, deux à trois semaines): bons résultats | propriétés antidépressives chez les personnes agées (l'homme; clinical, oral): se manifestaient de façon très bénéfique chez les personnes agées | reprise d'activité motrice chez la souris habituée à son enceinte (souris [16]): n'entraîne pas de reprise d'activité motrice chez la souris habituée à son enceinte
